# Measurements taken from paper PMC3789979, “Recruitment of a Cytoplasmic Chaperone Relay by the A2A Adenosine Receptor” (The Journal of Biological Chemistry, 2013).
# Read-outs that look alike come from different tables or passages of the source.
# Key:
# [1] = system: A2A receptor-chaperone complexes in PC12 cells; assay: Immunoprecipitation of endogenous A2A receptor from inhibitor-pretreated PC12 cells and immunoblotting; type: cell-based; details: for fully glycosylated, slowly migrating band of the A2A receptor: kifunensine 2 μM, bortezomib 10 nM
# Method: (§1) Cells (1–5 × 10^7 cells) were harvested, and membranes were prepared as described previously ([14]). Membranes were solubilized as described above, followed by incubation with streptavidin-conjugated beads (G2S-N-A2A) or Strep-Tactin-Sepharose beads (FSt2-N-A2A) for 2 h at 4 °C. […] Thereafter, preequilibrated protein G-Sepharose beads were added and incubated for an additional 3 h at 4 °C. The beads were washed twice with 0.5 ml of solubilization buffer. […] A2A receptor and HSP90 were detected by immunoblotting using either anti-A2AR or anti-FLAG and anti-HSP90α (Abcam, Cambridge, UK) antibodies, respectively. As a control, membranes were harvested from untransfected HEK293 cells and processed in parallel. Immunoblots were quantified as described above. Where required, nitrocellulose membranes of primary and secondary antibody labeling were stripped by incubation with KSCN buffer (3 M KSCN, 150 mM KCl, 10 mM NaH2PO4, 100 mg/liter polyvinylpyrrolidone K30, 1-ethenylpyrrolidin-2-one) for 20 min at 23 °C to afford detection of additional proteins with the pertinent antibodies (i.e. anti-HSP90β, anti-HSC70, anti-HOP, anti-P23, and anti-CHIP, all from Abcam).
# (§2) FIGURE 9. Effect of HSP90 and/or proteasome inhibitors on the levels of endogenously expressed A2A receptor in PC12 cells. […] B, prior to membrane preparations of PC12 cells expressing the A2A receptor, cells were incubated in the absence and presence of 17-DMAG (2 μM), kifunensine (2 μM), and bortezomib (10 nM). […] After two washes, surface-bound radioligand was released by an acid strip and recovered in the supernatant. Assays were performed in quadruplicates. […] After membrane extraction and immunoprecipitation, aliquots (corresponding to 3 × 10^5 cells) of the immunoprecipitate were blotted for the A2A receptor (top), HSP90α, HSP70–1A, HOP, P23, and CHIP, as indicated. M, mature; C, core glycosylated.
# [2] = system: endogenously expressed A2A receptor in PC12 cells; assay: [3H]ZM241385 binding to membranes of inhibitor-pretreated PC12 cells; type: cell-based; details: for levels of functional (binding-competent) receptors: 24 h pretreatment, 2 μM, 10 nM [3H]ZM241385, PC12 membranes; for increase in steady state levels of active A2A receptors: PC12 cells, kifunensine 2 μM, bortezomib 10 nM
# Method: (§3) After 60 min at 23 °C, the reaction was terminated by rapid filtration over glass fiber filters (Whatman-GE Healthcare). […] Total receptor numbers were also determined by measuring the radioactivity released after dissolving the samples in 1 M NaOH ([22]). […] The number of viable cells was determined manually using a microscope counting chamber.
# as §2
# [3] = parameters: method as in PMID 20177028; details: administered to people; cited from earlier work
# [4] = system: A2A receptor glycoforms, HEK293 cells stably expressing G2S-N-A2AR; assay: Immunoblot of A2A receptor glycoforms after HSP90 inhibitor treatment; type: cell-based, human; details: saturating concentrations, 24 h
# Method: as §1
# FIGURE 5. […] Statistical significance was calculated by analysis of variance followed by Dunnett's multiple-comparison post hoc test (*, p < 0.05; ***, p < 0.001). […]
# [5] = system: cell surface levels of the A2A receptor, HEK293 cells stably expressing FS2-N-A2AR; assay: Cell surface levels of the A2A receptor after 24 h HSP90 inhibitor treatment (acid-strip-sensitive [3H]ZM241385 binding); type: cell-based, human; details: for EC50 relative to affinity for binding to HSP90: EC50 higher than HSP90 affinity of refs 27, 28
# Method: as §3
# FIGURE 5. […] Error bars, S.D. Data are from four independent experiments done in triplicate. Statistical significance was calculated by analysis of variance followed by Dunnett's multiple-comparison post hoc test (*, p < 0.05; ***, p < 0.001). B, HEK293 cells stably expressing the tagged version G2S-N-A2AR were incubated with increasing concentrations of radicicol or 17-DMAG.
# [6] = system: A2A receptor-chaperone complexes, HEK293 cells stably expressing FS2-N-A2AR; assay: Co-affinity precipitation of receptor-chaperone complexes after inhibitor treatment; type: cell-based, human; details: 17-DMAG 2 μM; for amount of HSP90 co-affinity-purified with the A2A receptor / association of HSP70 with the A2A receptor / higher glycosylated, mature form of the co-purified A2A receptor (ratio mature/core): 24 h, kifunensine 2 μM, bortezomib 10 nM
# Method: as §1
# FIGURE 7. […] B, immunoblots done as in A (top) were analyzed with ImageJ. […] C, the A2A receptor was immunoprecipitated from cells that had been incubated in the presence and absence of 17-DMAG (2 μM) as in A. The levels of HSC70 (C, top), HOP (C, second from top), P23 (C, third from top), and CHIP (C, bottom) were determined by immunoblotting and quantified with ImageJ.
SMILES,"HSP90α, HSP70-1A and HSC70 recovered in the immunoprecipitate ([1]; 17-DMAG 2 μM, 24 h)","fully glycosylated, slowly migrating band of the A2A receptor ([1]; 24 h, 17-DMAG 2 μM)",HOP recovered with the A2A receptor ([1]; pretreatment with DMAG),P23 and CHIP recovered with the A2A receptor ([1]; pretreatment with DMAG),levels of functional (binding-competent) receptors [2],half-life [3],core glycosylated band of the A2A receptor (immunoblot) [4],"EC50 ([5]; 24 h incubation, acid-strip-sensitive [3H]ZM241385 binding, read-out: EC50 for increase in cell surface levels of the A2A receptor)",EC50 relative to affinity for binding to HSP90 [5],associated CHIP [6],associated P23 [6],co-precipitated HOP [6],co-precipitated HSC70 [6],amount of HSP90 co-affinity-purified with the A2A receptor [6],association of HSP70 with the A2A receptor [6],"higher glycosylated, mature form of the co-purified A2A receptor (ratio mature/core) [6]",increase in steady state levels of active A2A receptors [2],"EC50 ([5]; Homo sapiens, HEK293, read-out: EC50 for increase in cell surface levels of the A2A receptor)"
"CO[C@H]1/C=C\C=C(/C)C(=O)NC2=CC(=O)C(NCCN(C)C)=C(C[C@@H](C)C[C@H](OC)[C@H](O)[C@@H](C)/C=C(\C)[C@@H]1OC(N)=O)C2=O [17-DMAG, 17-dimethylaminoethylamino-17-demethoxygeldanamycin]",abundant amounts,increased the abundance,more,less,increased,24 h,increased accumulation,~1000 nM,about 3 fold,decline,"decrease in associated P23 (HSP90 co-chaperone), but this did not reach statistical significance",substantial increase,substantial increase,increased,augmented,significant increase,–,–
O=C1N[C@@H]2[C@@H](O)[C@@H](O)[C@H](O)[C@@H](CO)N2C1=O [kifunensine],–,increased the abundance,–,–,increased,–,–,–,–,–,–,–,–,accumulation,accumulation,no significant increase,about 1.5 fold,–
CC(C)C[C@H](NC(=O)[C@H](Cc1ccccc1)NC(=O)c1cnccn1)B(O)O [bortezomib],–,increased the abundance,–,–,–,–,–,–,–,–,–,–,–,did not cause the accumulation,did not cause the accumulation,significant increase,about 1.5 fold,–
C[C@@H]1C[C@H]2O[C@@H]2/C=C\C=C\C(=O)Cc2c(Cl)c(O)cc(O)c2C(=O)O1 [radicicol],–,–,–,–,–,–,increased accumulation,–,about 3 fold,–,–,–,–,–,–,–,–,~400 nM
